Test results taken from US20230295086A1, “NOVEL PSILOCIN DERIVATIVES HAVING PRODRUG PROPERTIES” (COMPASS […], priority 2020, published 2023).
≈ marks a conversion by molar mass, not a printed value. Marks after values point to notes of the source that are not given here.

How the values were obtained:
[1] = Kinetic solubility assay (Example 11)
Method: Test and control compounds were diluted to 10 mM in DMSO and then further diluted 1 in 50 in 50 mM PB (pH 7.4) to a target concentration of 200 μM. Samples were vortexed for at least 2 minutes and then left to shake (800 rpm) at room temperature for 24 hours. Visual appearance was assessed before centrifugation and injection into a UPLC system to measure concentration. […] Each compound was tested in duplicate.

[2] = Shake flask Log D assay (Example 11); format: physicochemical; details: 1-Octanol / 100 mM PB pH 7.4, shake flask, LC-MS/MS; test compound as hydrochloride
Method: Test and control compounds were diluted to 10 mM in DMSO. 2 μl of each stock solution was aliquoted into tubes in duplicate. 1-Octanol saturated phosphate buffer (PB) (pH 7.4) was prepared by adding 1-Octanol into 100 ml of 100 mM PB (7.4). PB saturated 1-Octanol was prepared by adding 10 ml of 100 mM PB (7.4) into 100 ml of 1-Octanol. 149 μl of each solution was aliquoted into the corresponding tubes. These were then mixed vigorously for 2 minutes and shaken (800 rpm) at room temperature for one hour. The appropriate volume of buffer and 1-Octanol layer samples was aliquoted and diluted, before detection using LC-MS/MS.
Log D was calculated according to the following equation: […]

[3] = Micro shake flask Log D; details: for Mean LogD: Octanol:PBS 1:9, pH 7.4, 10 μM, six replicates, novel compounds as hemifumarate; for logD at 2 h: pH 7.4
Method: 6 replicates of each test compound were incubated at 10 μM in a 1:9 ratio of Octanol: PBS at pH 7.4. Following a two hour incubation at room temperature shaking at 600 rpm, the incubation plate was centrifuged for 15 minutes to separate the layers and then two aliquots were removed from the PBS layer. The first was left neat and the second was diluted 10-fold to give dilute samples. Internal standards were added to both the calibration curve and the PBS incubation samples for analysis on LC MS/MS.
All 6 replicates of the neat samples were averaged to give one value for each, with the same calculation performed for the dilute sample values.

[4] = biological target: T1, serotonin 2A (5-HT2A) receptor (Mus musculus, UniProt P35363); experiment: Head twitch response (HTR) in mice; format: in vivo, male C57BL/6J mice; details: oral gavage 0.3 mg/kg
T1 construct: tissue Charles River UK; host or cells: whole living male C57BL/6J mice (in vivo, oral gavage)
T1 sequence (P35363 whole entry): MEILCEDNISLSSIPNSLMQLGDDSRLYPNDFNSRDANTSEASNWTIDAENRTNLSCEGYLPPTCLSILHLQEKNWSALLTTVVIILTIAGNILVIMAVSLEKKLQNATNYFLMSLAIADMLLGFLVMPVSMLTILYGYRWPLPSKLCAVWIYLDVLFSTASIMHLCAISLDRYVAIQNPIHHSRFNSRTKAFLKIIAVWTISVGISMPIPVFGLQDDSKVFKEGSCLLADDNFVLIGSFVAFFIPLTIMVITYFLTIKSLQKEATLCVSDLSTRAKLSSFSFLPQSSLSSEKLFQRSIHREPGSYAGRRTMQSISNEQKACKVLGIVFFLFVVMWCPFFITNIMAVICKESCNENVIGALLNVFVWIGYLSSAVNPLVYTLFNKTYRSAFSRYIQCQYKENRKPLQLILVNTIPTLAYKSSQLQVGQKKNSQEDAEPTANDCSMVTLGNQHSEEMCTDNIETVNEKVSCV

[5] = Kinetic turbidimetric solubility assay; details: 0.01 M PBS pH 7.4, 2% DMSO, room temperature, novel compounds as hemifumarate, psilocybin and psilocin free base; for solubility at 5 min: pH 7.4, aqueous buffer, kinetic from dmso stock
Method: Each test compound was diluted to 10 mM in DMSO. From this solution, six further dilutions of each test compound were prepared in DMSO (0.02, 0.1, 0.2, 1, 2, and 5 mM). […] Three replicate wells were designated per concentration. Following the dilutions in buffer, plates were incubated at room temperature shaking for 5 minutes before the absorbance was measured at 620 nm using a Molecular Devices SpectraMax384 UV detector. Nicardipine was tested as a control compound.
Solubility was estimated from the concentration of test compound that produced an increase in absorbance above a threshold of 0.005 absorbance units and was normalized to the DMSO blank.

[6] = Intake study: serum concentrations after oral ingestion by two volunteers; details: for c(Psilocin): study 1
Method: Two volunteers (1 M, 1 F) ingested about 1 mg of each one of P1 and M1 (Study 1) and P2 and M2 (Study 2) in gelatin capsules (exact amounts in Tables 3 and 4). One blood sample was collected prior to ingestion of the substances and served as a zero control. After ingestion samples were collected for about 8 h with increasing time intervals between sample taking (exact protocol in Tables 4 and 5). […] The obtained sera were transferred in plastic tubes and NaF (ca. 30 mg) and ascorbic acid (ca. 5 mg) were added to increase analytes stability.
200 μL serum were spiked with an internal standard solution (10 μL) and ACN (600 μL) was added to precipitate soluble proteins. Before mixing thoroughly ammonium formate (10 M, 200 μL) was added separate the aqueous from the organic phase. After centrifugation (6 min, 4,000×g), 500 μL of the organic phase were transferred into another vial and evaporated to dryness at 40° C. under a gentle stream of nitrogen. Samples were reconstituted in 100 μL mobile phase (A/B, 90/10, v/v) and used for analysis. For quantification a blank sample and a six point calibration (0.5, 1.0, 2.0, 5.0, 10, 20 ng/mL) in calf serum were prepared as described above.
The HPLC-MS system consisted of a Nexera X2 UHPLC system composed of three LC-30AD pumps, a DGU-30A3 degasser, a SIL-30AC autosampler, a CTO-10AS column oven and a CBM-20A controller (Shimadzu, Duisburg, Germany) coupled to a QTRAP 6500plus triple quadrupole linear ion trap mass spectrometer equipped with a TurbolonSpray Interface (Sciex, Darmstadt, Germany). The MS was operated in positive electrospray ionization mode. Data acquisition was performed in scheduled multiple reaction monitoring mode (detection window: 60 s) using Analyst software (version 1.7). MS parameters (declustering potential, entrance potential, collision energy, and collision cell exit potential) were optimized for all substances to obtain the best possible signal intensities (summary of the MRM parameters are given in Table 5). Ion source temperature and ion source voltage were set to 550° C. and +5500 V, respectively. Dwell time was 20 ms for every MRM transition. Curtain gas (N2) pressure was 35 psi, ion source gas 1 and 2 (compressed air) pressure were 50 and 60 psi, respectively, and collision gas (N2) pressure was set to “high.” Chromatographic separation was performed on a Kinetex® biphenyl column (100×2.1 mm, 2.6 μm particle size, Phenomenex, Aschaffenburg, Germany) with a corresponding guard column (SecurityGuard™ ULTRA Cartridges UHPLC Biphenyl for 2.1 mm ID columns, Phenomenex, Aschaffenburg, Germany). The autosampler and the column oven temperature were set to 10° C. and 40° C., respectively. The injection volume was 10 μL.

[7] = serum, oral intake of about 1 mg prodrug, mean of 2 volunteers

NC(=O)N1c2ccccc2C=Cc2ccccc21 [Carbamazepine]
Detected concentration ([1]; 50 mM PB pH 7.4, target 200 μM, 24 hours shaking at room temperature, UPLC, test compound as hydrochloride): 180 µM | solubility at 24 h ([1]; pH 7.4, aqueous buffer, kinetic from dmso stock): > 180 µM

CN(C)CCCN1c2ccccc2Sc2ccc(Cl)cc21 [Chlorpromazine]
logD at 1 h [2]: 3.28

CCOC(=O)Oc1cccc2[nH]cc(CCN(C)CC)c12 [N-methyl-N-ethyltryptamine-4-yl ethylcarbonate]
Mean LogD [3]: 1.01 | Mean number of head twitches 15-30 mins ([4]; N = 8): 3.5 | Mean number of head twitches 30-45 mins ([4]; N = 8): 2.38 | Mean number of head twitches 45-60 mins ([4]; N = 8): 0.38 | Solubility [5]: >200 µM

CC(C)(C)NCC(O)COc1cccc2c1CC(O)C(O)C2 (stereo not shown) [Nadolol]
logD at 1 h [2]: -1.33

COC(=O)C1=C(C)NC(C)=C(C(=O)OCCN(C)Cc2ccccc2)C1c1cccc([N+](=O)[O-])c1 (stereo not shown) [Nicardipine]
solubility at 5 min [5]: 24.4 µM (≈ 11.7 µg/mL)

CN(C)CCc1c[nH]c2cccc(O)c12 [Psilocin, psilocin]
logD at 2 h [3]: 1.01 | solubility at 5 min [5]: > 200 µM

CCOC(=O)Oc1cccc2[nH]cc(CCN(C)C)c12 [Psilocin-4-yl-ethylcarbonate, psilocin-4-yl ethyl carbonate]
Mean LogD [3]: 1.22 | Mean number of head twitches 0-15 mins ([4]; N = 8): 3.5 | Mean number of head twitches 15-30 mins ([4]; N = 8): 3.13 | Mean number of head twitches 30-45 mins ([4]; N = 8): 3.38 | Mean number of head twitches 45-60 mins ([4]; N = 8): 1.13 | Mean number of head twitches Total 0-60 mins ([4]; N = 8, 0.3 mg/kg): 10.84 | Parent prodrug itself in serum (not detected, LOD) ([6]; serum after oral ingestion of about 1 mg): < 0.05 ng/mL | Cmax of psilocin [6, 7]: 1.1 ± 0.5 ng/mL | Tmax of psilocin [6, 7]: 56 ± 13 min | elimination constant kel of psilocin [6, 7]: 0.0039 min⁻¹ | elimination half life t1/2 of psilocin [6, 7]: 191 min | c(Psilocin) ([6]; serum, test person A, oral P1 1.03 mg salt, 15 min, below LOQ, extrapolated): 0.15* ng/mL | c(Psilocin) ([6]; serum, test person A, oral P1 1.03 mg salt, 21 min): 0.34 ng/mL | c(Psilocin) ([6]; serum, test person A, oral P1 1.03 mg salt, 31 min): 0.51 ng/mL | c(Psilocin) ([6]; serum, test person A, oral P1 1.03 mg salt, 49 min): 0.82 ng/mL | c(Psilocin) ([6]; serum, test person A, oral P1 1.03 mg salt, 65 min): 1.45 ng/mL | c(Psilocin) ([6]; serum, test person A, oral P1 1.03 mg salt, 87 min): 1.02 ng/mL | c(Psilocin) ([6]; serum, test person A, oral P1 1.03 mg salt, 120 min): 1.02 ng/mL | c(Psilocin) ([6]; serum, test person A, oral P1 1.03 mg salt, 155 min): 0.59 ng/mL | c(Psilocin) ([6]; serum, test person A, oral P1 1.03 mg salt, 165 min): 0.98 ng/mL | c(Psilocin) ([6]; serum, test person A, oral P1 1.03 mg salt, 240 min): 0.58 ng/mL | c(Psilocin) ([6]; serum, test person A, oral P1 1.03 mg salt, 338 min): 0.34 ng/mL | c(Psilocin) ([6]; serum, test person A, oral P1 1.03 mg salt, 371 min): 0.33 ng/mL | c(Psilocin) ([6]; serum, test person A, oral P1 1.03 mg salt, 424 min, below LOQ, extrapolated): 0.29* ng/mL | c(Psilocin) ([6]; serum, test person A, oral P1 1.03 mg salt, 486 min, below LOQ, extrapolated): 0.26* ng/mL | c(Psilocin) ([6]; serum, test person B, oral P1 0.99 mg salt, 6 min, below LOQ, extrapolated): 0.22* ng/mL | c(Psilocin) ([6]; serum, test person B, oral P1 0.99 mg salt, 13 min, below LOQ, extrapolated): 0.25* ng/mL | c(Psilocin) ([6]; serum, test person B, oral P1 0.99 mg salt, 20 min): 0.38 ng/mL | c(Psilocin) ([6]; serum, test person B, oral P1 0.99 mg salt, 30 min): 0.60 ng/mL | c(Psilocin) ([6]; serum, test person B, oral P1 0.99 mg salt, 47 min): 0.76 ng/mL | c(Psilocin) ([6]; serum, test person B, oral P1 0.99 mg salt, 64 min): 0.54 ng/mL | c(Psilocin) ([6]; serum, test person B, oral P1 0.99 mg salt, 83 min): 0.60 ng/mL | c(Psilocin) ([6]; serum, test person B, oral P1 0.99 mg salt, 114 min): 0.43 ng/mL | c(Psilocin) ([6]; serum, test person B, oral P1 0.99 mg salt, 165 min): 0.37 ng/mL | c(Psilocin) ([6]; serum, test person B, oral P1 0.99 mg salt, 232 min): 0.32 ng/mL | c(Psilocin) ([6]; serum, test person B, oral P1 0.99 mg salt, 322 min, below LOQ, extrapolated): 0.25* ng/mL | c(Psilocin) ([6]; serum, test person B, oral P1 0.99 mg salt, 369 min, below LOQ, extrapolated): 0.24* ng/mL | c(Psilocin) ([6]; serum, test person B, oral P1 0.99 mg salt, 432 min, below LOQ, extrapolated): 0.22* ng/mL

CN(C)CCc1c[nH]c2cccc(OP(=O)(O)O)c12 [Psilocybin, psilocybin, reference compound]
logD at 2 h [3]: 0.57 | solubility at 5 min [5]: ≥ 100 µM
